Results taken from article PMC4356374, “Structural characterization of substrate and inhibitor binding to farnesyl pyrophosphate synthase from Pseudomonas aeruginosa” (Acta Crystallographica Section D: Biological Crystallography, 2015).

Legend:
[1] = molecular target: T1, farnesyl pyrophosphate synthase (PaFPPS, PA4043) (Pseudomonas aeruginosa, UniProt Q9HWY4); test: turnover with GPP by the purified enzyme, pyrophosphatase-coupled malachite green assay (kcat […] s^-1; no inhibition implied); type: biochemical
T1 construct: gene ispA; full-length, 295 amino acids
T1 sequence (Q9HWY4 1-295): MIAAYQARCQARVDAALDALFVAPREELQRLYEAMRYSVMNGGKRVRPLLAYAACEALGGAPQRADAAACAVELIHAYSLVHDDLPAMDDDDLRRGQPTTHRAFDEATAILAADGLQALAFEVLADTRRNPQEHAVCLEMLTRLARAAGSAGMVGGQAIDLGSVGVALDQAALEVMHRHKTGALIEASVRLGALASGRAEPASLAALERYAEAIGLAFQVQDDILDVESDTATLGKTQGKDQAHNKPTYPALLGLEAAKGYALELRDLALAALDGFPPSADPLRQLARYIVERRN

[2] = molecular target: T2, farnesyl pyrophosphate synthase (PaFPPS, PA4043) (Pseudomonas aeruginosa, UniProt Q9HWY4); test: X-ray crystal structure at […] Å (also with GPP, 3zou); DSF shift […] °C; no significant inhibition at […]; type: binding
T2 construct: gene ispA; full-length, 295 amino acids, His tag cleaved with TEV

[3] = molecular target: the molecule itself; test: crystal structure; sitting-drop vapour diffusion, 25 mg/ml protein; native: 20% PEG 3350, 0.2 M NaF, 0.1 M bis-tris propane pH 6.5; asymmetric unit holds a dimer related by a twofold noncrystallographic axis; 1.55 A

Q: For `C=C(C)CCO[P@@](=O)(O)OP(=O)(O)O` [isopentenyl pyrophosphate], which “turnover with GPP by the purified enzyme, pyrophosphatase-coupled malachite gree” value [1] is on record?
A: no reaction took place without both IPP and GPP being present

Q: `O=C(O)CCn1c(=O)oc2ccccc21` [SPB02696, 3-[2-hydrozybenzo[d]oxazol-3(2H)-yl]propanoic acid] was tested. Which “X-ray crystal structure at 1.90 Å (also with GPP, 3zou); DSF shift 2.8 °C; no si” value [2] did it give?
A: we describe the details of the enzyme–ligand interactions for fragment hit SPB02696 (termed 6H6 in the deposited coordinate file)

B1: farnesyl pyrophosphate synthase from Pseudomonas aeruginosa PAO1 (locus PA4043) (enzyme, UniProt Q9HWY4 1-295, looked up)
chain: T1 sequence (Q9HWY4 1-295)
notes: farnesyl pyrophosphate synthase, P. aeruginosa PAO1, locus PA4043; open reading frame amplified from the genome; protein of 295 amino acids; residues Ala227-Gly254 (loop-HI) disordered in all structures; Vector pNIC28-Bsa4 with N-terminal six-histidine tag and TEV site; the tag is cleaved in the purification; The ESI-MS mass of 34 017.5 Da was of the protein with the His tag; also called PaFPPS; …
Q: How did the “stoichiometry N” value [3] turn out when B1 was run?
A: 2
